Measured values from patent US12084472B2 (Ardelyx, Inc., priority 2015, dated 2024).

The compounds below were run against T1, human TGR5 (Homo sapiens, UniProt Q8TDU6) (assay: Cell-based TGR5 assay (cAMP generation, HTRF)). Conditions: HEK293 cells stably transfected with human TGR5; cAMP by HTRF; 30 minutes at 37° C.; read-out: pEC50 Human TGR5 (converted).
T1 construct: expressed in transfected cells; host or cells: HEK293
T1 sequence (Q8TDU6 1-330): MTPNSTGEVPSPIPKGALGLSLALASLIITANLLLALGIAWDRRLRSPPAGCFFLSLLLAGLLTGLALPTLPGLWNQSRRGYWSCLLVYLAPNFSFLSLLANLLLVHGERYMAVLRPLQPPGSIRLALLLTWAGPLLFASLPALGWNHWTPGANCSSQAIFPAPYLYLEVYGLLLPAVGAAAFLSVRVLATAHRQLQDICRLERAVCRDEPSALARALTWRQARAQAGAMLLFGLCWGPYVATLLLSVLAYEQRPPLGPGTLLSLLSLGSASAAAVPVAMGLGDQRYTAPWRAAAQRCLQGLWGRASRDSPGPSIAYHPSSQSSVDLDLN
Outline: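 Read-out was HTRF detection of cAMP, converted to concentration via a standard curve and fitted (3-parameter logistic) for pEC50 and maximal response. Agonist stimulation used HEK293 cells stably transfected with human TGR5, incubated 30 min at 37° C in IBMX-containing buffer at 0.05 nM to 10 μM compound.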
Work on `CC(CCCN)c1ccc(Cl)c(CNC2(c3cnccc3-c3ccccc3OC3CC3)CC2)c1` (stereo not shown) [Compound I-252, N-{[5-(5-aminopentan-2-yl)-2-chlorophenyl]methyl}-1-[4-(2-cyclopropoxyphenyl)pyridin-3-yl]cyclopropan-1-amine] yielded an EC50 of 126 to 1000 nM.
With `O=C(NCCC1CN(S(=O)(=O)c2ccc(Cl)c(COC3(c4cnccc4-c4ccccc4OC4CC4)CC3)c2)C1)NC[C@H](O)[C@@H](O)[C@H](O)[C@H](O)CO` [Compound I-421, 1-(2-{1-[4-chloro-3-({1-[4-(2-cyclopropoxyphenyl)pyridin-3-yl]cyclopropoxy}methyl)benzenesulfonyl]azetidin-3-yl}ethyl)-3-[(2S,3R,4R,5R)-2,3,4,5,6-pentahydroxyhexyl]urea] the EC50 was < 100 nM.
For `O=C(O)CN(CCN(CC(=O)O)CC(=O)NCCOCCSc1ccc(Cl)c(COC2(c3cnccc3-c3ccccc3OC3CC3)CC2)c1)CC(=O)NCCOCCSc1ccc(Cl)c(COC2(c3cnccc3-c3ccccc3OC3CC3)CC2)c1` [Compound I-612, 2-({2-[(carboxymethyl)({[2-(2-{[4-chloro-3-({1-[4-(2-cyclopropoxyphenyl)pyridin-3-yl]cyclopropoxy}methyl)phenyl]sulfanyl}ethoxy)ethyl]carbamoyl}methyl)amino]ethyl}({[2-(2-{[4-chloro-3-({1-[4-(2-cyclopropoxyphenyl)pyridin-3-yl]cyclopropoxy}methyl)phenyl]sulfanyl}ethoxy)ethyl]carbamoyl}methyl)amino)acetic acid], the EC50 was 126 to 1000 nM.
`CC(CCCN(CCS(C)(=O)=O)C(=O)[C@@H](O)[C@@H](O)[C@H](O)[C@@H](O)CO)c1ccc(Cl)c(COC2(c3cnccc3-c3ccccc3OC3CC3)CC2)c1` (stereo partly drawn) [Compound I-309, (2S,3S,4R,5S)-N-(4-[4-chloro-3-({1-[4-(2-cyclopropoxyphenyl)pyridin-3-yl]cyclopropoxy)methyl)phenyl]pentyl}-2,3,4,5,6-pentahydroxy-N-(2-methanesulfonylethyl)hexanamide] was tested, and the EC50 was < 100 nM.
In the case of `CN(C[C@H](O)[C@@H](O)[C@H](O)[C@H](O)CO)C(=O)CCCCSc1ccc(Cl)c(CNC2(c3cnccc3-c3ccccc3OC3CC3)CC2)c1` [Compound I-678, 5-({4-chloro-3-[({1-[4-(2-cyclopropoxyphenyl)pyridin-3-yl]cyclopropyl}amino)methyl]phenyl}sulfanyl)-N-methyl-N-[(2S,3R,4R,5R)-2,3,4,5,6-pentahydroxyhexyl]pentanamide], the EC50 is reported as < 100 nM.
For `CC(CCCC(=O)NC[C@H](O)[C@@H](O)[C@H](O)[C@H](O)CO)c1ccc(Cl)c(CNC2(c3cnccc3-c3ccccc3OC3CC3)CC2)c1` (stereo partly drawn) [Compound I-316, 5-{4-chloro-3-[({1-[4-(2-cyclopropoxyphenyl)pyridin-3-yl]cyclopropyl}amino)methyl]phenyl}-N-[(2S,3R,4R,5R)-2,3,4,5,6-pentahydroxyhexyl]hexanamide], the EC50 was < 100 nM.
For `CN(C[C@H](O)[C@@H](O)[C@H](O)[C@H](O)CO)C(=O)CCCCSc1ccc(Cl)c(COC2(c3cnccc3-c3ccccc3OC3CC3)CC2)c1` [Compound I-682, 5-{[4-chloro-3-({1-[4-(2-cyclopropoxyphenyl)pyridin-3-yl]cyclopropoxy}methyl)phenyl]sulfanyl}-N-methyl-N-[(2S,3R,4R,5R)-2,3,4,5,6-pentahydroxyhexyl]pentanamide], the EC50 was < 100 nM.
For `O=C([C@@H](O)[C@@H](O)[C@H](O)[C@@H](O)CO)N(CCCCSc1ccc(Cl)c(CNC2(c3cnccc3-c3ccccc3OC3CC3)CC2)c1)CCOCCO` [Compound I-533, (2S,3S,4R,5S)-N-[4-({4-chloro-3-[({1-[4-(2-cyclopropoxyphenyl)pyridin-3-yl]cyclopropyl}amino)methyl]phenyl}sulfanyl)butyl]-2,3,4,5,6-pentahydroxy-N-[2-(2-hydroxyethoxy)ethyl]hexanamide], the EC50 was < 100 nM.
`CCN(CCCCNC(=O)NC[C@H](O)[C@@H](O)[C@H](O)[C@H](O)CO)S(=O)(=O)c1ccc(Cl)c(CNC2(c3cnccc3-c3ccccc3OC3CC3)CC2)c1` [Compound I-473, 1-(4-{N-ethyl4-chloro-3-[({1-[4-(2-cyclopropoxyphenyl)pyridin-3-yl]cyclopropyl}amino)methyl]benzenesulfonamido}butyl)-3-[(2S,3R,4R,5R)-2,3,4,5,6-pentahydroxyhexyl]urea] was tested, and the EC50 was < 100 nM.
With `COCCN(CCCCCNC(=O)N[C@@H](CO)[C@@H](O)[C@H](O)[C@H](O)CO)S(=O)(=O)c1ccc(Cl)c(COC2(c3cnccc3-c3ccccc3OC3CC3)CC2)c1` [Compound I-413, 1-{5-[N-(2-methoxyethyl)4-chloro-3-({1-[4-(2-cyclopropoxyphenyl)pyridin-3-yl]cyclopropoxy}methyl)benzenesulfonamido]pentyl}-3-[(2S,3R,4S,5R)-1,3,4,5,6-pentahydroxyhexan-2-yl]urea] the EC50 was < 100 nM.
With `O=C(CCCCc1cc(Cl)c(COC2(c3cnccc3-c3ccccc3OC3CC3)CC2)cc1Cl)N(C[C@H](O)[C@@H](O)[C@H](O)[C@H](O)CO)C1CCOCC1` [Compound I-131, 5-[2,5-dichloro-4-({1-[4-(2-cyclopropoxyphenyl)pyridin-3-yl]cyclopropoxy}methyl)phenyl]-N-(oxan-4-yl)-N-[(2S,3R,4R,5R)-2,3,4,5,6-pentahydroxyhexyl]pentanamide] the EC50 was < 100 nM.
For `Cc1ccc(C(C)CCCC(=O)N(CCCS(C)(=O)=O)C[C@H](O)[C@@H](O)[C@H](O)[C@H](O)CO)cc1CNC1(c2cnccc2-c2ccccc2OC2CC2)CC1` (stereo partly drawn) [Compound I-370, 5-{3-[({1-[4-(2-cyclopropoxyphenyl)pyridin-3-yl]cyclopropyl}amino)methyl]-4-methylphenyl}-N-(3-methanesulfonylpropyl)-N-[(2S,3R,4R,5R)-2,3,4,5,6-pentahydroxyhexyl]hexanamide], the EC50 was < 100 nM.
In the case of `CC(CCCN(CCCCNS(C)(=O)=O)C(=O)[C@@H](O)[C@@H](O)[C@H](O)[C@@H](O)CO)c1ccc(Cl)c(CNC2(c3cnccc3-c3ccccc3OC3CC3)CC2)c1` (stereo partly drawn) [Compound I-297, (2S,3S,4R,5S)-N-(4-{4-chloro-3-[({1-[4-(2-cyclopropoxyphenyl)pyridin-3-yl]cyclopropyl}amino)methyl]phenyl}pentyl)-2,3,4,5,6-pentahydroxy-N-(4-methanesulfonamidobutyl) hexanamide], the EC50 is reported as < 100 nM.
For `CN(CCOCCNC(=O)NC[C@H](O)[C@@H](O)[C@H](O)[C@H](O)CO)S(=O)(=O)c1ccc(Cl)c(COC2(c3cnccc3-c3ccccc3OC3CC3)CC2)c1` (stereo in doubt) [Compound I-404, 1-(2-{2-[N-methyl4-chloro-3-({1-[4-(2-cyclopropoxyphenyl)pyridin-3-yl]cyclopropoxy}methyl)benzenesulfonamido]ethoxy}ethyl)-3-[(2S,3R,4R,5R)-2,3,4,5,6-pentahydroxyhexyl]urea], the EC50 was < 100 nM.
For `COCCN(CCCCc1cc(Cl)c(COC2(c3cnccc3-c3ccccc3OC3CC3)CC2)cc1C)C(=O)NC[C@H](O)[C@@H](O)[C@H](O)[C@H](O)CO` [Compound I-116, 1-{4-[5-chloro-4-({1-[4-(2-cyclopropoxyphenyl)pyridin-3-yl]cyclopropoxy}methyl)-2-methylphenyl]butyl}-1-(2-methoxyethyl)-3-[(2S,3R,4R,5R)-2,3,4,5,6-pentahydroxyhexyl]urea], the EC50 was < 100 nM.
With `Cc1ccc(Cl)cc1CNC1(c2cnccc2-c2ccccc2OC2CC2)CC1` [Compound I-40, N-[(5-chloro-2-methylphenyl)methyl]-1-[4-(2-cyclopropoxyphenyl)pyridin-3-yl]cyclopropan-1-amine] the EC50 was < 100 nM.
